# Data from PubChem BioAssay AID1645848.
# Conditions: buffer; pH 7.4; 6.0 h; 150.0 µM
row,solubility kinetic [µg/mL],SMILES
1,10.6,NC(=O)C1CCN(c2nc(-c3cccc(Cl)c3)cs2)CC1
2,> 100,O=c1cc(-c2ccc(O)c(O)c2)oc2cc(O)cc(O)c12
3,11.9,O=C(CCCCn1c(=O)[nH]c2ccsc2c1=O)N1CCN(c2cccc(Cl)c2)CC1
4,24.5,Oc1ccc(CNc2cccnc2)c2cccnc12
5,2.37,Cc1ccc(NC(=O)N(Cc2cn(C)c3ccccc23)C2CCCCC2)cc1C
6,33,Cc1c(C)n(Cc2ccccc2)c2ccc(C(=O)OCCN(C)C)cc12
7,8.07,Cc1ccnc(NC(=S)N2CCN(c3ccccc3C(F)(F)F)CC2)c1
8,< 1,O=C(Nc1ncc(Cc2ccc(C(F)(F)F)cc2)s1)c1cn(-c2ccccc2)cn1
9,63.8,O=C(c1ccc(C(=O)N2CCC(N3CCCC3)CC2)c(Nc2ccccc2)c1)N1CCC(N2CCCC2)CC1
10,32.6,Cn1cc(Nc2cnccc2C(=O)O)c2cccnc21
11,> 48,Cc1ccnc(NC(=S)N2CCN(c3ccc(N)cc3)CC2)c1
12,> 58,O=c1[nH]c(N2CCOCC2)nc2c1CCN(Cc1ccc(Cl)cc1F)CC2
13,< 1,COc1ccc(C2C=C(c3ccc(Cl)cc3)Nc3nc(-c4ccc(Cl)cc4)nn32)cc1 (centres undefined)
14,< 1,O=C(Nc1cc(Cc2ccccc2)ccn1)c1ccc(-c2cccc([N+](=O)[O-])c2)o1
15,< 1,CCOC(=O)C1CCN(c2nc(-c3ccc(Br)cc3)cs2)CC1
16,14.6,Cc1cn(CCN2CCN(c3ccccc3-c3cc(C#N)cc(C(=O)NCCCN4CCCC4)c3)CC2)c2ccccc12
17,> 39,NC(=O)c1cnc(N[C@@H]2CCCC[C@@H]2N)nc1Nc1cccc(-n2nccn2)c1
18,> 39,O=C(c1ccc2c(c1)OCO2)N1CCC(Cc2nc(-c3cnccn3)no2)CC1
19,< 1,CC(C)Nc1oc(-c2cccc3ccccc23)nc1C#N
20,29.6,Cc1nnn(C)c1-c1cnc2c3ccc(C(C)(C)O)cc3n([C@H](c3ccccc3)C3CCOCC3)c2c1
21,> 50,COc1ccccc1-n1cnc2cc(C(=O)N3CCCCC3)ccc21
22,< 1,CC(C)(C)c1ccc(S(=O)(=O)N2CCC(c3ccncc3)CC2)cc1
23,6.89,Cc1cc(C)nc(NC(=S)N2CCN(c3ccc(C(F)(F)F)cc3[N+](=O)[O-])CC2)c1
24,< 1,CCCCCOc1ccccc1/C(=C\SC)n1ccnc1

row,solubility kinetic [µg/mL],SMILES
1,< 1,Fc1ccc(-c2nc(-c3ccncc3)nc3ccccc23)cc1F
2,48.1,CCCCn1cnc2cc(NC(=O)c3cc(OC)c(OC)c(OC)c3)ccc21
3,> 56,Cc1nc(NC2CCCCC2)c2nc(-c3ccccc3)n(CCN(C)C)c2n1
4,32.9,Cc1ccc(-c2csc(N3CCC(C(N)=O)CC3)n2)cc1
5,8.51,O=C(O)C(=O)O.Oc1ccccc1NCC(O)Cn1ccc2ccccc21 (centres undefined)
6,13,COc1ccnc(NC(=S)N2CCN(c3cccc(C(F)(F)F)c3)CC2)c1
7,6.22,CCc1nc2c(sc3nc4c(cc32)COC(C)(C)C4)c(=O)n1Cc1ccco1
8,< 1,CCOc1cc2ncc(C#N)c(Nc3ccc(OCc4ccccn4)c(Cl)c3)c2cc1NC(=O)/C=C/CN(C)C
9,< 1,CC1=C(C(=O)Nc2nc3ccccc3s2)C(c2[nH]ncc2Cl)N=C(Nc2nc3ccccc3o2)N1 (centres undefined)
10,41.9,Cc1cnc(CNc2nc(-c3ccccc3Cl)nc3ccccc23)cn1
11,4.65,NC(=O)C1CCN(c2nc(-c3ccccc3F)cs2)CC1
12,< 1,Cc1nnc(-c2ccccc2C(C)C)nc1NCc1ccc(-c2cccnc2)cc1
13,< 1,O=C(Nc1nc(-c2ccccc2)cs1)c1ccncc1NS(=O)(=O)c1ccc(F)cc1Cl
14,40.3,CCc1ccc(NC(=O)c2[nH]c(C)c(C(C)=O)c2C)cc1[S+](=O)([O-])Nc1ccccc1C#N
15,2.5,Cc1ccc(-c2nn(C(C)(C)C)c3ncnc(N)c23)cc1
16,2.18,CCOC(=O)c1nc(Nc2ccc(N3CCC(C)CC3)cc2)c2ccccc2n1
17,> 65,O=C(Nc1nc(-c2ccccc2)cs1)c1ccncc1NS(=O)(=O)c1cccnc1
18,< 1,CCc1cccc(NC(=O)C(Cc2ccccc2)NS(=O)(=O)c2cccs2)c1 (centres undefined)
19,18.3,CC(=O)Nc1ccc(N[S+](=O)([O-])c2cccc(NC(=O)c3[nH]c(C)c(C(C)=O)c3C)c2)cc1
20,< 1,CCCCOc1ccc(CNC(=O)c2cc3n(n2)CCCN(Cc2ccc(C)cc2)C3=O)cc1
21,> 63,Cc1cc(NS(=O)(=O)c2ccc(NC(=O)Cc3ccc(Cl)c(F)c3)cc2)no1
22,1.84,O=S(=O)(Nc1cnc2ccccc2c1)c1ccc(NCc2cccc(Cl)c2O)cc1
23,26.2,CCOC(=O)c1ccc(-c2ccc3ncnc(NCCc4cnc[nH]4)c3c2)o1
24,< 1,Fc1cc(Nc2nc(-c3ccncc3)nc3ccccc23)ccc1-c1ccc(F)c(F)c1F

row,solubility kinetic [µg/mL],SMILES
1,4.07,Cc1cccc(C(=O)N2CCc3cc(-c4nc(NC(=O)Cc5ccc6c(c5)OCO6)sc4C)ccc32)c1
2,< 1,Cc1nnc(N2C(=O)c3oc4ccccc4c(=O)c3C2c2ccc(F)cc2)s1 (centres undefined)
3,6.41,CCN1C(=O)c2ccccc2S(=O)c2ccc(NC(=O)Cc3ccc(OC)cc3)cc21 (centres undefined)
4,> 47,CS(=O)(=O)Nc1cccc(-c2nccc(-n3ccnc3)n2)c1
5,> 55,Cn1c2cc(S(C)=O)sc2c2cnn(Cc3cccc(N)c3)c(=O)c21 (centres undefined)
6,< 1,O=C(Nc1ncc(Cc2ccc(C(F)(F)F)cc2)s1)c1ccc(-c2cccnc2)o1
7,< 1,Cc1cc(C)c(C(=O)Nc2cccc([S+](=O)([O-])Nc3ccc(Br)cc3)c2)[nH]1
8,1.92,COc1cccc(NS(=O)(=O)c2ccc(NCc3cccc(OC)c3O)cc2)c1
9,< 1,FC1(F)CCN(c2nc(-c3ccncc3)nc3ccccc23)CC1
10,1.2,COc1cccc(C(=O)Nc2nc(-c3nnn(-c4cc(C)ccc4C)c3C)ns2)c1
11,7.65,Cc1ccc(N2CCC(CNc3nc(-c4ccccc4C(C)C)ncc3F)CC2)cn1
12,15.2,C[C@@]12O[C@@H](C[C@]1(O)CO)n1c3ccccc3c3c4c(c5c6ccccc6n2c5c31)CNC4=O
13,< 1,Cc1cccc(CS(=O)(=O)c2ncc(Cl)c(C(=O)Nc3nc4ccc(F)cc4s3)n2)c1
14,47.2,Nc1cccc(CNc2ccc(S(=O)(=O)Nc3nccs3)cc2)c1O
15,> 61,C#CCNC(=O)c1nc(-c2cccnc2)c2ccccn12
16,1.42,Cc1ccccc1N(C)C1CN([S+](=O)([O-])c2cccc(C(F)(F)F)c2)C1
17,7.75,Cc1ccnc(NC(=S)N2CCC(c3cccc(C(F)(F)F)c3)CC2)c1
18,< 1,Fc1ccc(Nc2nc(-c3ccncc3)ncc2-c2ccccc2)cc1F
19,< 1,COc1cc(C2CC(=O)Nc3cc4c(cc32)OCCO4)cc(Br)c1OC (centres undefined)
20,> 37,Cc1nc([N+](=O)[O-])cn1-c1ccc([N+](=O)[O-])cc1
21,1.55,CCCNC(=O)Nc1ccc(Oc2ncnc3cc(OC)c(OC)cc23)cc1Cl
22,< 1,O=C(Nc1ncc(Cc2cccc(C(F)(F)F)c2)s1)c1ccc(-c2cccc([N+](=O)[O-])c2)o1
23,19,O=C1Nc2ccc(Cl)cc2/C1=C\c1cc(Cl)c(O)c(Cl)c1
24,> 52,COc1cc(-c2cn(C)c(=O)c3cnccc23)c(OC)cc1CN(C)C

row,solubility kinetic [µg/mL],SMILES
1,< 1,O=C([C@H](Cc1ccc(O[S+](=O)([O-])c2cccc3cnccc23)cc1)N[S+](=O)([O-])c1cccc2cnccc12)N1CCN(Cc2ccccc2)CC1
2,> 43,CCN1CCN(C(=O)CCCn2nc(C)c3c(C)n(-c4ccc(C)cc4)nc3c2=O)CC1
3,< 1,Cc1ccccc1C(=O)N1CCc2cc(-n3cc(NC(=O)Cc4ccccc4)cn3)ccc21
4,< 1,Cc1cc(C)c(CNC(=O)c2nc(-c3ccc(F)cc3)cc3c2ccn3C(C)C)c(=O)[nH]1
5,< 1,COc1cccc(Nc2nc(-c3ccncc3)nc3ccccc23)c1
6,3.32,CCn1nnnc1Sc1ncnc2scc(-c3ccc(C)cc3)c12
7,< 1,CCOc1ccc(CCNC(=O)c2cc3sccc3n2Cc2cccc(C)c2)cc1OCC
8,> 51,COc1ccc2[nH]c(S(=O)Cc3ncc(C)c(OC)c3C)nc2n1 (centres undefined)
9,15,COc1cc(/C=C2\C(=O)Nc3ccccc32)ccc1O
10,< 1,COc1ccccc1NC(=O)C1=C(C)Nc2c(C(=O)Nc3cccc(C)c3)cnn2C1c1ccccc1Cl (centres undefined)
11,8.29,Cc1c(O)ccc2c1OC(C)(C)CC2
12,1.35,CN1C(=O)c2ccccc2[S@](=O)c2ccc(C(=O)NCc3cccnc3)cc21
13,34.6,NC(=O)C1CCN(c2nc(-c3ccc4c(c3)OCCO4)cs2)CC1
14,14.2,O=C(NCCCNc1nc(Nc2cccc(NC(=O)N3CCCC3)c2)ncc1I)c1cccs1
15,0.705,Fc1ccc(-c2csc3ncnc(Sc4nnnn4-c4ccccc4)c23)cc1
16,5.42,O=C(NCCc1ccccn1)C1CC(=O)N(c2n[nH]c3cc(Br)ccc23)C1 (centres undefined)
17,< 1,COc1ccc(-n2c(C)c(C(C)=O)c3cc(OC(=O)COc4ccccc4)ccc32)cc1
18,< 1,Cc1ccc(S(=O)(=O)Nc2ccccc2C(=O)Nc2ccc(-c3ccccc3)nn2)cc1
19,< 1,CCc1cccc(-n2nnc(-c3nsc(NC(=O)c4cccc(OC)c4)n3)c2C)c1
20,> 45,O=C(Oc1ccc[nH]c1=O)c1cc([N+](=O)[O-])cc([N+](=O)[O-])c1
21,3.2,CCOC(=O)c1csc(NC(=O)c2ccncc2NS(=O)(=O)c2ccc(C)cc2)n1
22,< 1,Fc1ccc(Nc2nc(-c3ccncc3)nc3ccccc23)cc1F

row,SMILES,solubility kinetic [µg/mL]
1,CCOc1ccc(CCNC(=O)c2cc3ccccc3n2Cc2ccccn2)cc1OCC,< 1
2,COc1cc2c(cc1Oc1cccc(N(C)C)c1)NC(=O)C21CCN(c2cnccn2)CC1,2.21
3,CC1Oc2cc3c(-c4c(O)cc(O)c5c(O)c6c(cc45)OC(C)C(C)C6=O)c(O)cc(O)c3c(O)c2C(=O)C1C (centres undefined),53.5
4,CCOC(=O)c1ccc(NC(=O)CSc2nc3c(cc2C#N)N2CCC3CC2)cc1,1.15
5,CCOc1ccc(CCNC(=O)c2cc3ccccc3n2CCN2CCOCC2)cc1OCC,47.5
